# Assay results as given in ChEMBL document CHEMBL1221220, “Transport and signaling via the amino acid binding site of the yeast Gap1 amino acid transceptor” (Nat Chem Biol, 2009).
# Non-standard residues stand in square brackets, D forms with d. Residues, ends and D or L forms follow the SMILES beside them. *: point of attachment. pGlu = O=C1CC[C@@H](C(=O)O)N1; Boc = CC(C)(C)OC(=O)*; βAla = NCCC(=O)O; Sar = CNCC(=O)O
# Biological target: T1, General amino-acid permease GAP1 (Saccharomyces cerevisiae) (UniProt P19145)
# T1 sequence (whole entry): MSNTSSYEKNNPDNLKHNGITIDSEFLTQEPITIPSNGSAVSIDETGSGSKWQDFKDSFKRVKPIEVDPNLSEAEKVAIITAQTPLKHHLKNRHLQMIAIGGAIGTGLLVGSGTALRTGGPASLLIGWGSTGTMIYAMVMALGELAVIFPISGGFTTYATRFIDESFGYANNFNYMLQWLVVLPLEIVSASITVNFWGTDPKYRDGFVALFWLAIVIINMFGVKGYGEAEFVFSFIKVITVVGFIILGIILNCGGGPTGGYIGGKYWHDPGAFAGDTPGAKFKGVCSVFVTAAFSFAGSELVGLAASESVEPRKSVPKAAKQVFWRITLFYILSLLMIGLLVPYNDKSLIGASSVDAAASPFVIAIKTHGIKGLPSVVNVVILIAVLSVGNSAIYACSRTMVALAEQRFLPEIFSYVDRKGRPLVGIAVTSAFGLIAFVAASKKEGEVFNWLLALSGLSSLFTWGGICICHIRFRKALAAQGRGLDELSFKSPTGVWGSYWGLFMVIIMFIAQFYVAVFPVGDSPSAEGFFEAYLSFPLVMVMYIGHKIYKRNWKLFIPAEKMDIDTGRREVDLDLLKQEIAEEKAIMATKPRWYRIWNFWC
# Conditions: sigma1278b, at 5 mM
# Description: Inhibition of nitrogen-starved wild type sigma1278b yeast Gap1-mediated amino acid uptake at 5 mM after 60 secs relative to L-citrulline
# 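Note: amino acid uptake through Gap1 in nitrogen-starved wild-type yeast cells, measured after 60 s and expressed relative to L-citrulline.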
row,SMILES,inhibition
1,CC(C)(C)OC(=O)N[C@@H](CCC(=O)O)C(=O)O,< 15%
2,CCCC(NC(=O)C(C)N)C(=O)O (racemic),< 15%
3,N[C@@H](CCC(=O)O)C(=O)N[C@@H](Cc1ccc(O)cc1)C(=O)N[C@@H](CCC(=O)O)C(=O)O (H-Glu-Tyr-Glu-OH),15%
4,NCC(=O)N[C@@H](Cc1cnc[nH]1)C(=O)NCC(=O)O (H-Gly-His-Gly-OH),< 15%
5,CC(C)C[C@H](NC(=O)[C@@H](N)CCC(=O)O)C(=O)O (H-Glu-Leu-OH),< 15%
6,CSCC[C@H](NC(=O)CN)C(=O)O,< 15%
7,CN[C@@H](CC(C)C)C(=O)N[C@@H](CC(C)C)C(=O)O,15%
8,N[C@@H](CCC(=O)O)C(=O)N[C@@H](Cc1c[nH]c2ccccc12)C(=O)N[C@@H](CCC(=O)O)C(=O)O (H-Glu-Trp-Glu-OH),< 15%
9,COC(=O)[C@@H]1C=CCN1,< 15%
10,N[C@@H](Cc1ccc(O)cc1)C(=O)N[C@@H](Cc1ccc(O)cc1)C(=O)N[C@@H](Cc1ccc(O)cc1)C(=O)O (H-Tyr-Tyr-Tyr-OH),< 15%
11,CC(=O)NCCCC[C@H](NC(C)=O)C(=O)O,< 15%
12,CC[C@H](C)[C@H](NC(=O)OCc1ccccc1)C(=O)O,15%
13,N[C@@H](Cc1cnc[nH]1)C(=O)NCC(=O)N[C@@H](Cc1cnc[nH]1)C(=O)O (H-His-Gly-His-OH),< 15%
14,COC(=O)[C@@H](N)CCCCN,< 15%
15,CC(C)C[C@H](NC(=O)[C@@H](N)[C@@H](C)O)C(=O)O (H-Thr-Leu-OH),< 15%
16,NCC(=O)NCC(=O)NCC(=O)O,< 15%
17,CC(C)C[C@@H](N)CO,< 15%
18,CC(C)C[C@H](N)C(=O)N[C@@H](Cc1cnc[nH]1)C(=O)O (H-Leu-His-OH),> 30%
19,N[C@@H](Cc1ccc(O)cc1)C(=O)N[C@@H](Cc1ccc(O)cc1)C(=O)NCC(=O)O (H-Tyr-Tyr-Gly-OH),< 15%
20,C[C@@H](O)[C@H](NC(=O)OC(C)(C)C)C(=O)O,< 15%
21,COC(=O)CC[C@H](NC(=O)OC(C)(C)C)C(=O)O,< 15%
22,CC(C)C[C@@H](NC(=O)CN)C(=O)O,< 15%
23,NCCS(=O)(=O)O,< 15%
24,CC(=O)N[C@@H](Cc1c[nH]c2ccccc12)C(=O)O,< 15%

row,SMILES,inhibition
1,C[C@H](NC(=O)[C@@H](N)Cc1ccc(O)cc1)C(=O)N[C@@H](CCCNC(=N)N)C(=O)O (H-Tyr-Ala-Arg-OH),< 15%
2,COC(=O)[C@@H](N)CC(C)C,< 15%
3,CSCC[C@H](NC(=O)[C@@H](N)Cc1ccccc1)C(=O)O (H-Phe-Met-OH),< 15%
4,CCOC(=O)[C@@H](N)Cc1c[nH]c2ccccc12,< 15%
5,NC(=O)CC[C@H](NC(=O)[C@@H](N)CO)C(=O)O (H-Ser-Gln-OH),< 15%
6,N[C@@H](Cc1c[nH]cn1)C(=O)N[C@@H](Cc1c[nH]cn1)C(=O)O,15%
7,C[C@H](NC(=O)[C@@H](N)[C@@H](C)O)C(=O)O (H-Thr-Ala-OH),< 15%
8,CC(C)(C)OC(=O)NCC(=O)N1CCC[C@H]1C(=O)N1CCC[C@H]1C(=O)O (Boc-Gly-Pro-Pro-OH),< 15%
9,CCOC(=O)[C@@H](N)CCSC,< 15%
10,CSCC[C@H](NC(=O)[C@H](CC(C)C)NC(=O)CN)C(=O)O (H-Gly-Leu-Met-OH),< 15%
11,CC(C)C[C@H](NC(=O)CN)C(N)=O,< 15%
12,CC(=O)NCC(=O)N[C@@H](Cc1cnc[nH]1)C(=O)N[C@@H](CCCCN)C(=O)O (Ac-Gly-His-Lys-OH),< 15%
13,C[C@H](N)C(=O)N[C@@H](CC(N)=O)C(=O)O (H-Ala-Asn-OH),> 30%
14,CC(C)C[C@@H](N)C(=O)NCC(=O)NCC(=O)O (H-[dL]-Gly-Gly-OH),< 15%
15,C[C@H](N)C(=O)N[C@@H](Cc1c[nH]c2ccccc12)C(=O)O (H-Ala-Trp-OH),> 30%
16,COC(=O)[C@@H](N)Cc1c[nH]c2ccccc12,< 15%
17,C[C@H](NC(=O)[C@H](Cc1cnc[nH]1)NC(=O)CN)C(=O)O (H-Gly-His-Ala-OH),< 15%
18,O=C(O)CNC(=O)[C@H](Cc1cnc[nH]1)NC(=O)[C@@H]1CCC(=O)N1 ([pGlu]-His-Gly-OH),< 15%
19,NC(=O)[C@@H](N)CO,< 15%
20,CC(C)C[C@H](NC(=O)OC(C)(C)C)C(=O)O,< 15%
21,C[C@H](NC(=O)CNC(=O)CN)C(=O)O,< 15%
22,CSCC[C@H](N)C(=O)N[C@@H](C)C(=O)N[C@@H](CO)C(=O)O (H-Met-Ala-Ser-OH),< 15%
23,CC(C)[C@@H](NC(=O)OC(C)(C)C)C(=O)O,< 15%
24,COC(=O)[C@H](C)N,< 15%

row,SMILES,inhibition
1,NCC(=O)N[C@@H](CC(=O)O)C(=O)O (H-Gly-Asp-OH),< 15%
2,CSCC[C@H](NC(=O)[C@@H](N)Cc1ccc(O)cc1)C(=O)NCC(=O)O (H-Tyr-Met-Gly-OH),< 15%
3,N[C@@H](CO)C(=O)N[C@@H](CO)C(=O)N[C@@H](CO)C(=O)O (H-Ser-Ser-Ser-OH),< 15%
4,CSCC[C@H](NC(=O)[C@H](Cc1ccc(O)cc1)NC(=O)[C@@H](N)CC(=O)O)C(=O)O (H-Asp-Tyr-Met-OH),< 15%
5,CCC[C@@H](NC(=O)[C@@H](N)CCC(=O)O)C(=O)O,< 15%
6,CSCC[C@H](NC(=O)[C@@H](N)CCSC)C(=O)N[C@@H](C)C(=O)O (H-Met-Met-Ala-OH),< 15%
7,CC(N)(Cc1ccccc1)C(=O)O (stereo not drawn),< 15%
8,CC(C)C[C@H](N)C(=O)NCC(=O)NCC(=O)O (H-Leu-Gly-Gly-OH),< 15%
9,NCC(=O)N1CCC[C@H]1C(=O)O (H-Gly-Pro-OH),< 15%
10,CSCC[C@H](N)C(=O)N[C@@H](Cc1cnc[nH]1)C(=O)O (H-Met-His-OH),< 15%
11,CC(=O)N[C@H](C(=O)O)[C@@H](C)OC(C)(C)C,< 15%
12,CC(C)C[C@@H](N)C(=O)N[C@H](Cc1ccc(O)cc1)C(=O)O,< 15%
13,CC(C)C[C@H](NC(=O)[C@H](CC(C)C)NC(=O)[C@@H](N)C(C)C)C(=O)O (H-Val-Leu-Leu-OH),< 15%
14,CSCC[C@H](NC(=O)CN)C(=O)NCC(=O)O (H-Gly-Met-Gly-OH),< 15%
15,CC(C)C[C@H](NC(=O)CN)C(=O)N[C@@H](Cc1ccc(O)cc1)C(=O)O (H-Gly-Leu-Tyr-OH),< 15%
16,CCCC(NC(=O)CN)C(=O)O (racemic),15%
17,CC(C)C[C@H](N)C(=O)N[C@@H](Cc1ccc(O)cc1)C(=O)O,> 30%
18,NC(=O)[C@@H](N)Cc1c[nH]c2ccccc12,< 15%
19,CC(C)[C@H](N)C(N)=O,< 15%
20,CSCC[C@H](NC(=O)[C@@H](N)CCSC)C(=O)O (H-Met-Met-OH),< 15%
21,CSCCC(NC(=O)C(C)N)C(=O)O (racemic),< 15%
22,CSCC[C@H](NC(=O)[C@@H](N)Cc1cnc[nH]1)C(=O)O (H-His-Met-OH),15%
23,CC(C)[C@H](NC(=O)[C@@H](N)Cc1ccccc1)C(=O)O (H-Phe-Val-OH),< 15%
24,C[C@@H](O)[C@@H](NC(=O)CN)C(=O)O,< 15%

row,SMILES,inhibition
1,CSCC[C@H](N)C(=O)N[C@@H](CCCNC(=N)N)C(=O)N[C@@H](Cc1ccccc1)C(=O)O (H-Met-Arg-Phe-OH),15%
2,C[C@H](N)C(=O)NCC(=O)O (racemic),> 30%
3,CC(C)C[C@H](NC(=O)[C@@H](NC(=O)[C@@H](N)[C@@H](C)O)C(C)C)C(=O)O (H-Thr-Val-Leu-OH),< 15%
4,COC(=O)[C@H](CO)NC(=O)OC(C)(C)C,< 15%
5,C[C@@H](O)[C@H](NC(=O)[C@H](CCCCN)NC(=O)[C@@H](N)Cc1ccc(O)cc1)C(=O)O (H-Tyr-Lys-Thr-OH),< 15%
6,CC(C)(C)OC(=O)N[C@@H](CCCCN)C(=O)O,< 15%
7,CC(C)(C)OC(=O)[C@@H](N)Cc1ccccc1,< 15%
8,CC(C)C[C@H](NC(=O)[C@H](CC(C)C)NC(=O)[C@@H](N)CC(=O)O)C(=O)O (H-Asp-Leu-Leu-OH),15%
9,COC(=O)[C@@H](N)C(C)C,< 15%
10,N[C@H]1CSSC[C@@H](C(=O)O)NC1=O,15%
11,NCC(=O)N[C@@H](CC(N)=O)C(=O)O (H-Gly-Asn-OH),< 15%
12,CN(CC(=O)O)C(=O)CNC(=O)CN (H-Gly-Gly-[Sar]-OH),< 15%
13,CC(C)(C)OC(=O)N[C@@H](CO)C(=O)O,< 15%
14,NCC(=O)NCC(=O)N[C@@H](Cc1ccc(O)cc1)C(=O)O (H-Gly-Gly-Tyr-OH),< 15%
15,CC[C@H](C)[C@H](NC(=O)[C@@H](N)CC(C)C)C(=O)O (H-Leu-Ile-OH),< 15%
16,NCCCC[C@H](NC(=O)[C@@H](N)Cc1ccc(O)cc1)C(=O)O (H-Tyr-Lys-OH),> 30%
17,CC(=O)N[C@@H](CC[S+](C)[O-])C(=O)O (stereo partly drawn),< 15%
18,CC(C)C[C@H](NC(=O)[C@@H](N)CC(C)C)C(=O)O,< 15%
19,CC(C)C[C@H](NC(=O)[C@@H](N)CC(C)C)C(=O)NCCC(=O)O (H-Leu-Leu-[βAla]-OH),> 30%
20,C[C@H](N)C(=O)N[C@@H](CO)C(=O)O (H-Ala-Ser-OH),> 30%
21,N[C@@H](Cc1ccccc1)C(=O)NCC(=O)O (H-Phe-Gly-OH),< 15%
